Data: patent US7919493B2, “Anititumoral ecteinascidin derivatives” (Pharma Mar, S.A., priority 2001, dated 2011)
≈ marks a conversion by molar mass, not a printed value.

Tests used:
Type in all cases: cell-based
DU-145 = assay: Cytotoxic activity screening, DU-145 cells; conditions: Homo sapiens, DU-145, DU-145 cells
Procedure: [The source words this procedure for another cell line and reports this cell line under the same test.] (§1) Cell Cultures. Cells were maintained in logarithmic phase of growth in Eagle's Minimum Essential Medium, with Earle's Balanced Salts, with 2.0 mM L-glutamine, with non-essential amino acids, without sodium bicarbonate (EMEM/neaa); supplemented with 10% Fetal Calf Serum (FCS), 10^−2 M sodium bicarbonate and 0.1 g/l penicillin-G+streptomycin sulfate.
(§2) A simple screening procedure has been carried out to determine and compare the antitumour activity of these compounds, using an adapted form of the method described by Bergeron et al (1984). The tumour cell line employed have been P-388 (suspension culture of a lymphoid neoplasm from DBA/2 mouse), A-549 (monolayer culture of a human lung carcinoma), HT-29 (monolayer culture of a human colon carcinoma) and MEL-28 (monolayer culture of a human melanoma).
Examples of biological activities of the compounds described in the present application are in Table IV (IC50 (ng/mL)) on the following pages.

[1] = tested on: A-549 (monolayer culture of a human lung carcinoma); assay: Cytotoxic activity screening, A-549 cells; conditions: Homo sapiens, A549, 72 h, three days of incubation, Crystal Violet, approximate IC50
Procedure: as §1
(§3) A separate set of cultures without drug was seeded as control growth to ensure that cells remained in exponential phase of growth. All determinations were carried out in duplicate. After three days of incubation at 37° C., 10% CO2 in a 98% humid atmosphere, the wells were stained with 0.1% Crystal Violet. An approximately IC50 was determined by comparing the growth in wells with drug to the growth in wells control.

[2] = tested on: HT-29 (monolayer culture of a human colon carcinoma); assay: Cytotoxic activity screening, HT-29 cells; conditions: Homo sapiens, HT-29, 72 h, three days of incubation, Crystal Violet, approximate IC50
Procedure: as §1, §3

[3] = tested on: MEL-28 (monolayer culture of a human melanoma); assay: Cytotoxic activity screening, MEL-28 cells; conditions: Homo sapiens, SK-MEL-28, 72 h, three days of incubation, Crystal Violet, approximate IC50
Procedure: as §1, §2
as §3, with “A-549, HT-29 and MEL-28 were seeded into 16 mm wells at 2×10^4 cells per well in 1 ml aliquots of MEM 10FCS containing the indicated concentration of drug. A separate” for “A separate”

[4] = tested on: P-388 (suspension culture of a lymphoid neoplasm from DBA/2 mouse); assay: Cytotoxic activity screening, P-388 cells; conditions: Mus musculus, P388, 72 h, three days of incubation, approximate IC50 vs control growth
Procedure: as §1, §2
P-388 cell were seeded into 16 mm wells at 1×10^4 cells per well in 1 ml aliquots of MEM 5FCS containing the indicated concentration of drug. A separate set of cultures without drug was seeded as control growth to ensure that cells remained in exponential phase of growth. All determinations were carried out in duplicate.

SMILES | IC50 (DU-145) | IC50 [1] | IC50 [2] | IC50 [3] | IC50 [4]
COc1c(C)cc2c(c1O)[C@@H]1C3[C@@H]4SC[C@H](NC(=O)C(N)C(C)C)C(=O)OC[C@@H](c5c6c(c(C)c(OC(C)=O)c54)OCO6)N3[C@@H](C#N)[C@H](C2)N1C (some centres unmarked) [Compound 3p] | 1 ng/mL (≈ 1.39 nM) | 1 ng/mL (≈ 1.39 nM) | 1 ng/mL (≈ 1.39 nM) | 1 ng/mL (≈ 1.39 nM) | 1 ng/mL (≈ 1.39 nM)
COc1c(C)cc2c(c1O)[C@@H]1C3[C@@H]4SC[C@H](NC(=O)C(NC(C)=O)C(C)C)C(=O)OC[C@@H](c5c6c(c(C)c(OC(C)=O)c54)OCO6)N3[C@@H](C#N)[C@H](C2)N1C (some centres unmarked) [Compound 3q] | 1 ng/mL (≈ 1.31 nM) | 1 ng/mL (≈ 1.31 nM) | 1 ng/mL (≈ 1.31 nM) | 1 ng/mL (≈ 1.31 nM) | 1 ng/mL (≈ 1.31 nM)
COc1c(C)cc2c(c1O)[C@@H]1C3[C@@H]4SC[C@H](NC(=O)C(NC(=O)/C=C/c5ccccc5)C(C)C)C(=O)OC[C@@H](c5c6c(c(C)c(OC(C)=O)c54)OCO6)N3[C@@H](C#N)[C@H](C2)N1C (some centres unmarked) [Compound 3r] | 1 ng/mL (≈ 1.17 nM) | 1 ng/mL (≈ 1.17 nM) | 1 ng/mL (≈ 1.17 nM) | 1 ng/mL (≈ 1.17 nM) | 1 ng/mL (≈ 1.17 nM)
COc1c(C)cc2c(c1O)[C@@H]1C3[C@@H]4SC[C@H](NC(=O)C(NC(=O)C(C)N)C(C)C)C(=O)OC[C@@H](c5c6c(c(C)c(OC(C)=O)c54)OCO6)N3[C@@H](C#N)[C@H](C2)N1C (some centres unmarked) [Compound 3s] | 1 ng/mL (≈ 1.26 nM) | 1 ng/mL (≈ 1.26 nM) | 1 ng/mL (≈ 1.26 nM) | 1 ng/mL (≈ 1.26 nM) | 1 ng/mL (≈ 1.26 nM)
COc1c(C)cc2c(c1O)[C@@H]1C3[C@@H]4SC[C@H](NC(=O)C(NC(=O)C(C)NC(C)=O)C(C)C)C(=O)OC[C@@H](c5c6c(c(C)c(OC(C)=O)c54)OCO6)N3[C@@H](C#N)[C@H](C2)N1C (some centres unmarked) [Compound 3t] | 10 ng/mL (≈ 12 nM) | 10 ng/mL (≈ 12 nM) | 10 ng/mL (≈ 12 nM) | 10 ng/mL (≈ 12 nM) | 10 ng/mL (≈ 12 nM)
COc1c(C)cc2c(c1O)[C@@H]1C3[C@@H]4SC[C@H](NC(=O)C(NC(=O)C(C)NC(=O)/C=C/c5ccccc5)C(C)C)C(=O)OC[C@@H](c5c6c(c(C)c(OC(C)=O)c54)OCO6)N3[C@@H](C#N)[C@H](C2)N1C (some centres unmarked) [Compound 3u] | 1 ng/mL (≈ 1.08 nM) | 5 ng/mL (≈ 5.42 nM) | 1 ng/mL (≈ 1.08 nM) | 1 ng/mL (≈ 1.08 nM) | 5 ng/mL (≈ 5.42 nM)
COc1c(C)cc2c(c1O)[C@@H]1C3[C@@H]4SC[C@H](NC(=O)C(C)N)C(=O)OC[C@@H](c5c6c(c(C)c(OC(C)=O)c54)OCO6)N3[C@@H](C#N)[C@H](C2)N1C (some centres unmarked) [Compound 3v] | 1 ng/mL (≈ 1.44 nM) | 1 ng/mL (≈ 1.44 nM) | 1 ng/mL (≈ 1.44 nM) | 1 ng/mL (≈ 1.44 nM) | 1 ng/mL (≈ 1.44 nM)
COc1c(C)cc2c(c1O)[C@@H]1C3[C@@H]4SC[C@H](NC(=O)C(C)NC(C)=O)C(=O)OC[C@@H](c5c6c(c(C)c(OC(C)=O)c54)OCO6)N3[C@@H](C#N)[C@H](C2)N1C (some centres unmarked) [Compound 3w] | 1 ng/mL (≈ 1.36 nM) | 1 ng/mL (≈ 1.36 nM) | 1 ng/mL (≈ 1.36 nM) | 1 ng/mL (≈ 1.36 nM) | 1 ng/mL (≈ 1.36 nM)
COc1c(C)cc2c(c1O)[C@@H]1C3[C@@H]4SC[C@H](NC(=O)C(C)NC(=O)/C=C/c5ccccc5)C(=O)OC[C@@H](c5c6c(c(C)c(OC(C)=O)c54)OCO6)N3[C@@H](C#N)[C@H](C2)N1C (some centres unmarked) [Compound 3x] | 0.1 ng/mL (≈ 0.121 nM) | 0.1 ng/mL (≈ 0.121 nM) | 0.1 ng/mL (≈ 0.121 nM) | 0.1 ng/mL (≈ 0.121 nM) | 0.1 ng/mL (≈ 0.121 nM)
COc1c(C)cc2c(c1O)[C@@H]1C3[C@@H]4SC[C@@H](NC(C)=O)C(=O)OC[C@@H](c5c6c(c(C)c(OC(C)=O)c54)OCO6)N3[C@@H](O)[C@H](C2)N1C (some centres unmarked) [Compound 4a] | 0.1 ng/mL (≈ 0.153 nM) | 0.5 ng/mL (≈ 0.763 nM) | 0.1 ng/mL (≈ 0.153 nM) | 0.5 ng/mL (≈ 0.763 nM) | 0.1 ng/mL (≈ 0.153 nM)
CCCC(=O)N[C@H]1CS[C@@H]2c3c(OC(C)=O)c(C)c4c(c3[C@H](COC1=O)N1C2[C@H]2c3c(cc(C)c(OC)c3O)C[C@@H]([C@@H]1O)N2C)OCO4 (some centres unmarked) [Compound 4c] | 0.1 ng/mL (≈ 0.146 nM) | 0.1 ng/mL (≈ 0.146 nM) | 0.1 ng/mL (≈ 0.146 nM) | 0.1 ng/mL (≈ 0.146 nM) | 0.1 ng/mL (≈ 0.146 nM)
COc1c(C)cc2c(c1O)[C@@H]1C3[C@@H]4SC[C@H](NC(=O)CC(C)C)C(=O)OC[C@@H](c5c6c(c(C)c(OC(C)=O)c54)OCO6)N3[C@@H](O)[C@H](C2)N1C (some centres unmarked) [Compound 4d] | 0.5 ng/mL (≈ 0.717 nM) | 0.5 ng/mL (≈ 0.717 nM) | 0.5 ng/mL (≈ 0.717 nM) | 0.5 ng/mL (≈ 0.717 nM) | 0.5 ng/mL (≈ 0.717 nM)
CCCCCCCC(=O)N[C@H]1CS[C@@H]2c3c(OC(C)=O)c(C)c4c(c3[C@H](COC1=O)N1C2[C@H]2c3c(cc(C)c(OC)c3O)C[C@@H]([C@@H]1O)N2C)OCO4 (some centres unmarked) [Compound 4e] | 1 ng/mL (≈ 1.35 nM) | 1 ng/mL (≈ 1.35 nM) | 1 ng/mL (≈ 1.35 nM) | 1 ng/mL (≈ 1.35 nM) | 1 ng/mL (≈ 1.35 nM)
CCCCCCCCCCCCCCCC(=O)N[C@H]1CS[C@@H]2c3c(OC(C)=O)c(C)c4c(c3[C@H](COC1=O)N1C2[C@H]2c3c(cc(C)c(OC)c3O)C[C@@H]([C@@H]1O)N2C)OCO4 (some centres unmarked) [Compound 4f] | 100 ng/mL (≈ 117 nM) | 100 ng/mL (≈ 117 nM) | 100 ng/mL (≈ 117 nM) | 100 ng/mL (≈ 117 nM) | 100 ng/mL (≈ 117 nM)
COc1c(C)cc2c(c1O)[C@@H]1C3[C@@H]4SC[C@H](NC(=O)c5ccccc5)C(=O)OC[C@@H](c5c6c(c(C)c(OC(C)=O)c54)OCO6)N3[C@@H](O)[C@H](C2)N1C (some centres unmarked) [Compound 4g] | 0.5 ng/mL (≈ 0.697 nM) | 0.5 ng/mL (≈ 0.697 nM) | 0.5 ng/mL (≈ 0.697 nM) | 0.5 ng/mL (≈ 0.697 nM) | 0.1 ng/mL (≈ 0.139 nM)
COc1c(C)cc2c(c1O)[C@@H]1C3[C@@H]4SC[C@H](NC(=O)/C=C/c5ccc(C(F)(F)F)cc5)C(=O)OC[C@@H](c5c6c(c(C)c(OC(C)=O)c54)OCO6)N3[C@@H](O)[C@H](C2)N1C (some centres unmarked) [Compound 4i] | 1 ng/mL (≈ 1.23 nM) | 1 ng/mL (≈ 1.23 nM) | 1 ng/mL (≈ 1.23 nM) | 1 ng/mL (≈ 1.23 nM) | 1 ng/mL (≈ 1.23 nM)
COc1c(C)cc2c(c1O)[C@@H]1C3[C@@H]4SC[C@H](NC(=O)CCCCC5SCC6NC(=O)NC65)C(=O)OC[C@@H](c5c6c(c(C)c(OC(C)=O)c54)OCO6)N3[C@@H](O)[C@H](C2)N1C (some centres unmarked) [Compound 4k] | 10 ng/mL (≈ 11.9 nM) | 10 ng/mL (≈ 11.9 nM) | 10 ng/mL (≈ 11.9 nM) | 10 ng/mL (≈ 11.9 nM) | 10 ng/mL (≈ 11.9 nM)
COc1c(C)cc2c(c1O)[C@@H]1C3[C@@H]4SC[C@H](NC(=O)CCC(=O)O)C(=O)OC[C@@H](c5c6c(c(C)c(OC(C)=O)c54)OCO6)N3[C@@H](O)[C@H](C2)N1C (some centres unmarked) [Compound 4l] | 100 ng/mL (≈ 140 nM) | 100 ng/mL (≈ 140 nM) | 100 ng/mL (≈ 140 nM) | 100 ng/mL (≈ 140 nM) | 100 ng/mL (≈ 140 nM)
COc1c(C)cc2c(c1O)[C@@H]1C3[C@@H]4SCC(NCc5ccccc5)C(=O)OC[C@@H](c5c6c(c(C)c(OC(C)=O)c54)OCO6)N3[C@@H](O)[C@H](C2)N1C (some centres unmarked) [Compound 4n] | 0.5 ng/mL (≈ 0.71 nM) | 0.5 ng/mL (≈ 0.71 nM) | 0.5 ng/mL (≈ 0.71 nM) | 0.5 ng/mL (≈ 0.71 nM) | 0.5 ng/mL (≈ 0.71 nM)
COc1c(C)cc2c(c1O)[C@@H]1C3[C@@H]4SCC(NC(=O)C(N)C(C)C)C(=O)OC[C@@H](c5c6c(c(C)c(OC(C)=O)c54)OCO6)N3[C@@H](O)[C@H](C2)N1C (some centres unmarked) [Compound 4p] | 0.5 ng/mL (≈ 0.701 nM) | 0.5 ng/mL (≈ 0.701 nM) | 0.5 ng/mL (≈ 0.701 nM) | 0.5 ng/mL (≈ 0.701 nM) | 0.5 ng/mL (≈ 0.701 nM)
COc1c(C)cc2c(c1O)[C@@H]1C3[C@@H]4SC[C@H](NC(=O)C(NC(C)=O)C(C)C)C(=O)OC[C@@H](c5c6c(c(C)c(OC(C)=O)c54)OCO6)N3[C@@H](O)[C@H](C2)N1C (some centres unmarked) [Compound 4q] | 1 ng/mL (≈ 1.32 nM) | 1 ng/mL (≈ 1.32 nM) | 1 ng/mL (≈ 1.32 nM) | 1 ng/mL (≈ 1.32 nM) | 1 ng/mL (≈ 1.32 nM)
COc1c(C)cc2c(c1O)[C@@H]1C3[C@@H]4SC[C@H](NC(=O)C(NC(=O)/C=C/c5ccccc5)C(C)C)C(=O)OC[C@@H](c5c6c(c(C)c(OC(C)=O)c54)OCO6)N3[C@@H](O)[C@H](C2)N1C (some centres unmarked) [Compound 4r] | 0.5 ng/mL (≈ 0.593 nM) | 0.5 ng/mL (≈ 0.593 nM) | 0.5 ng/mL (≈ 0.593 nM) | 0.5 ng/mL (≈ 0.593 nM) | 0.5 ng/mL (≈ 0.593 nM)
